System: classical pathway activation of complement in human serum
Experiment: Inhibition of complement activation
Assay type: biochemical
Conditions: NA: not active at the highest concentrations tested; for IC50: complement inhibition assay, initiation via the classical pathway, human serum; for IC50 fold change: relative to peptide 1

Substance | IC50 | IC50 fold change
Ac-I[CVYQDWGAH(NMe)RC]T-NH2 [Peptide 11] | 32 µM | 0.08
Ac-I[CVYQDW(NMe)GAHRC]T-NH2 [Peptide 8] | 1.43 µM | 1.7
Ac-I[CVYQD(NMe)WGAHRC]T-NH2 [Peptide 7] | 25 µM | 0.1
Ac-I[CVYQDWG(NMe)AHRC]T-NH2 [Peptide 9] | completely inactive | –
Ac-I[CV(NMe)YQDWGAHRC]T-NH2 [Peptide 4] | completely inactive | –
Ac-I[CVYQ(NMe)DWGAHRC]T-NH2 [Peptide 6] | 44 µM | 0.06
Ac-I[CVYQDWGA(NMe)HRC]T-NH2 [Peptide 10] | 94 µM | 0.03
Ac-I[C(NMe)VYQDWGAHRC]T-NH2 [Peptide 3] | completely inactive | –
Ac-I[CVY(NMe)QDWGAHRC]T-NH2 [Peptide 5] | 33 µM | 0.07
Ac-I[CVYQDWGAHR(NMe)C]T-NH2 [Peptide 12] | 154 µM | 0.02

From article PMC3014449 (Molecular immunology, 2010)
